# Laboratory results from patent US8952024B2, “Herbicidal pyrimidone derivatives” (E I du Pont de Nemours and Company, priority 2009, dated 2015).
# Key:
# Format in all cases: in vivo
# corn (Zea mays) = assay: Test B pre-/postemergence plant response
# Description: (§1) Seeds of plant species selected from blackgrass (Alopecurus myosuroides), downy bromegrass (Bromus tectorum), green foxtail (Setaria viridis), Italian ryegrass (Lolium multiflorum), wheat (Triticum aestivum), wild oat (Avena fatua), deadnettle (henbit deadnettle, Lamium amplexicaule), galium (catchweed bedstraw, Galium aparine), bermudagrass (Cynodon dactylon), Surinam grass (Brachiaria decumbens), cocklebur (Xanthium strumarium), corn (Zea mays), large crabgrass (Digitaria sanguinalis), woolly cupgrass (Eriochloa villosa), giant foxtail (Setaria faberii), goosegrass (Eleusine indica), johnsongrass (Sorghum halepense), kochia (Kochia scoparia), lambsquarters (Chenopodium album), morningglory (Ipomoea coccinea), nightshade (eastern black nightshade, Solanum ptycanthum), yellow nutsedge (Cyperus esculentus), pigweed (Amaranthus retroflexus), ragweed (common ragweed, Ambrosia elatior), Russian thistle (Salsola kali), soybean (Glycine max), sunflower (common oilseed sunflower, Helianthus annuus) and velvetleaf (Abutilon theophrasti) were planted into a blend of loam soil and sand and treated preemergence with test compounds formulated in a non-phytotoxic solvent mixture which included a surfactant.
# (§2) At the same time, plants selected from these crop and weed species and also winter barley (Hordeum vulgare), canarygrass (Phalaris minor), chickweed (Stellaria media) and windgrass (Apera spica-venti) were planted in pots containing Redi-Earth® planting medium (Scotts Company, 14111 Scottslawn Road, Marysville, Ohio 43041) comprising spaghnum peat moss, vermiculite, wetting agent and starter nutrients and treated with postemergence applications of some of the test chemicals formulated in the same manner. Plants ranged in height from 2 to 18 cm (1- to 4-leaf stage) for postemergence treatments.
# (§3) Treated plants and controls were maintained in a greenhouse for 13 to 15 days, after which time all treated plants were visually evaluated and compared to controls. Plant response ratings, summarized in Table B, are based on a scale of 0 to 100 where 0 is no effect and 100 is complete control. A dash (-) response means no test result.
# [1] = tested on: giant foxtail (Setaria faberii); assay: Test B pre-/postemergence plant response
# Description: as §1, §2, §3
# [2] = tested on: goosegrass (Eleusine indica); assay: Test B pre-/postemergence plant response
# Description: as §1, §2, §3
# [3] = tested on: green foxtail (Setaria viridis); assay: Test B pre-/postemergence plant response
# Description: as §1, §2, §3
# [4] = tested on: johnsongrass (Sorghum halepense); assay: Test B pre-/postemergence plant response
# Description: as §1, §2, §3
# [5] = tested on: lambsquarters (Chenopodium album); assay: Test B pre-/postemergence plant response
# Description: as §1, §2, §3
# [6] = tested on: pigweed (Amaranthus retroflexus); assay: Test B pre-/postemergence plant response
# Description: as §1, §2, §3
# soybean (Glycine max) = assay: Test B pre-/postemergence plant response
# Description: as §1, §2, §3
# [7] = tested on: velvetleaf (Abutilon theophrasti); assay: Test B pre-/postemergence plant response
# Description: as §1, §2, §3
# [8] = tested on: yellow nutsedge (Cyperus esculentus); assay: Test B pre-/postemergence plant response
# Description: as §1, §2, §3
# [9] = tested on: canarygrass (Phalaris minor); assay: Test B postemergence plant response; conditions: Postemergence
# Method in brief: (§4)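 Plants at the 1- to 4-leaf stage (2 to 18 cm tall), grown in pots of peat moss/vermiculite medium with wetting agent and starter nutrients, received postemergence applications of test chemicals. After 13 to 15 days in a greenhouse, injury was rated visually against untreated controls on a 0 (no effect) to 100 (complete control) scale.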
# [10] = tested on: chickweed (Stellaria media); assay: Test B postemergence plant response; conditions: Postemergence
# Method in brief: as §4
# [11] = tested on: windgrass (Apera spica-venti); assay: Test B postemergence plant response; conditions: Postemergence, scale 0 (no effect) to 100 (complete control)
# Method in brief: as §4
# [12] = tested on: winter barley (Hordeum vulgare); assay: Test B postemergence plant response; conditions: Postemergence
# Method in brief: as §4
# [13] = 250 g ai/ha, Preemergence, 0 to 100 scale
# [14] = Postemergence, 31 g ai/ha, scale 0 to 100 (0 no effect, 100 complete control)
# [15] = Postemergence, 62 g ai/ha, scale 0 (no effect) to 100 (complete control), 13 to 15 days
# [16] = Postemergence, 125 g ai/ha, visual rating after 13 to 15 days, scale 0 (no effect) to 100 (complete control)
# [17] = Postemergence, 250 g ai/ha, scale 0 to 100
# [18] = Preemergence, 31 g ai/ha, scale 0 to 100 (0 no effect, 100 complete control)
# [19] = Preemergence, 62 g ai/ha, scale 0 to 100 (0 no effect, 100 complete control)
# [20] = Preemergence, 125 g ai/ha, 0 to 100 scale
# [21] = 31 g ai/ha, scale 0 to 100 (0 no effect, 100 complete control)
# [22] = 62 g ai/ha, scale 0 (no effect) to 100 (complete control), 13 to 15 days
# [23] = 125 g ai/ha, visual rating after 13 to 15 days, scale 0 (no effect) to 100 (complete control)
compound,measurement,setting,value
Cc1ccccc1-n1c(-c2cccc(Cl)c2)ncc(C(=O)C2=C(O)CCCC2=O)c1=O [Compound 36],"Plant response rating, Corn",corn (Zea mays); [13],0
same,"Plant response rating, Corn",corn (Zea mays); [14],50
same,"Plant response rating, Corn",corn (Zea mays); [15],55
same,"Plant response rating, Corn",corn (Zea mays); [16],65
same,Corn plant response rating,corn (Zea mays); [17],85
same,"Plant response rating, Corn",corn (Zea mays); [18],0
same,"Plant response rating, Corn",corn (Zea mays); [19],0
same,Corn plant response rating,corn (Zea mays); [20],0
same,"Plant response rating, Foxtail, Giant",[1]; [13],80
same,"Plant response rating, Foxtail, Giant",[1]; [14],95
same,"Plant response rating, Foxtail, Giant",[1]; [15],95
same,"Plant response rating, Foxtail, Giant",[1]; [16],98
same,"Foxtail, Giant plant response rating",[1]; [17],98
same,"Plant response rating, Foxtail, Giant",[1]; [18],10
same,"Plant response rating, Foxtail, Giant",[1]; [19],20
same,"Foxtail, Giant plant response rating",[1]; [20],65
same,"Plant response rating, Goosegrass",[2]; [13],100
same,"Plant response rating, Goosegrass",[2]; [15],85
same,"Plant response rating, Goosegrass",[2]; [16],90
same,Goosegrass plant response rating,[2]; [17],95
same,"Plant response rating, Goosegrass",[2]; [18],0
same,Goosegrass plant response rating,[2]; [20],95
same,"Plant response rating, Foxtail, Green",[3]; [13],85
same,"Plant response rating, Foxtail, Green",[3]; [14],85
same,"Plant response rating, Foxtail, Green",[3]; [15],90
same,"Plant response rating, Foxtail, Green",[3]; [16],90
same,"Foxtail, Green plant response rating",[3]; [17],90
same,"Plant response rating, Foxtail, Green",[3]; [18],35
same,"Plant response rating, Foxtail, Green",[3]; [19],80
same,"Foxtail, Green plant response rating",[3]; [20],85
same,"Plant response rating, Johnsongrass",[4]; [13],85
same,"Plant response rating, Johnsongrass",[4]; [15],75
same,"Plant response rating, Johnsongrass",[4]; [16],85
same,Johnsongrass plant response rating,[4]; [17],100
same,"Plant response rating, Johnsongrass",[4]; [18],0
same,"Plant response rating, Johnsongrass",[4]; [19],65
same,Johnsongrass plant response rating,[4]; [20],80
same,"Plant response rating, Lambsquarters",[5]; [13],100
same,"Plant response rating, Lambsquarters",[5]; [15],100
same,"Plant response rating, Lambsquarters",[5]; [16],100
same,Lambsquarters plant response rating,[5]; [17],100
same,"Plant response rating, Lambsquarters",[5]; [18],98
same,"Plant response rating, Lambsquarters",[5]; [19],100
same,Lambsquarters plant response rating,[5]; [20],100
same,"Plant response rating, Pigweed",[6]; [13],100
same,"Plant response rating, Pigweed",[6]; [15],85
same,"Plant response rating, Pigweed",[6]; [16],90
same,"Plant response rating, Pigweed",[6]; [18],100
same,Pigweed plant response rating,[6]; [20],100
same,"Plant response rating, Soybean",soybean (Glycine max); [13],40
same,"Plant response rating, Soybean",soybean (Glycine max); [15],98
same,"Plant response rating, Soybean",soybean (Glycine max); [16],100
same,"Plant response rating, Soybean",soybean (Glycine max); [18],0
same,Soybean plant response rating,soybean (Glycine max); [20],0
same,"Plant response rating, Velvetleaf",[7]; [13],100
same,"Plant response rating, Velvetleaf",[7]; [15],100
same,"Plant response rating, Velvetleaf",[7]; [16],100
same,"Plant response rating, Velvetleaf",[7]; [18],65
same,Velvetleaf plant response rating,[7]; [20],100
same,"Plant response rating, Nutsedge, Yellow",[8]; [13],75
same,"Plant response rating, Nutsedge, Yellow",[8]; [15],20
same,"Plant response rating, Nutsedge, Yellow",[8]; [16],25
same,"Plant response rating, Nutsedge, Yellow",[8]; [18],0
same,"Nutsedge, Yellow plant response rating",[8]; [20],40
same,"Plant response rating, Canarygrass",[9]; [21],40
same,"Plant response rating, Canarygrass",[9]; [22],45
same,"Plant response rating, Canarygrass",[9]; [23],50
same,Canarygrass plant response rating,"[9]; 250 g ai/ha, scale 0 to 100",50
same,"Plant response rating, Chickweed",[10]; [21],85
same,"Plant response rating, Chickweed",[10]; [22],98
same,"Plant response rating, Chickweed",[10]; [23],100
same,Chickweed plant response rating,"[10]; 250 g ai/ha, scale 0 to 100",100
same,"Plant response rating, Windgrass","[11]; 62 g ai/ha, 13 to 15 days",70
same,"Plant response rating, Windgrass","[11]; 125 g ai/ha, visual rating after 13 to 15 days",80
same,"Plant response rating, Barley",[12]; [21],5
same,"Plant response rating, Barley",[12]; [22],10
same,"Plant response rating, Barley",[12]; [23],20
